Measurements taken from US6517836B1, “Nitrophenylaziridine compounds and their use as prodrugs” (Auckland Uniservices Limited, priority 1998, dated 2003).
Where two headings read alike, the source gives them in different places.

Assays:
[1] = system: Chinese hamster fibroblast NR− line (T78-1), V79/4 transfected with an empty shuttle vector; assay: Cytotoxicity, 18 h drug exposure, V79 NR− line (T78-1); type: cell-based; conditions: read-out: V-79 NR− IC50
Description: (§1) The Chinese hamster fibroblast NR− line (T78-1) is a V79/4 Chinese hamster fibroblast transfected with an empty shuttle vector, while the NR+ line (T79-A3) is the corresponding NR transfectant. The human colon carcinoma NR− line (WIDR) is wild-type, while the NR+ line (WC14 10) is the corresponding NR transfectant. The human ovarian carcinoma NR− line (SKOV3) is wild-type, while the NR+ line (SC3.2) is the corresponding NR transfectant. EMT6 is a mouse mammary carcinoma line, and EN2A is the NR-transformed counterpart.

[2] = system: Chinese hamster fibroblast NR+ line (T79-A3), NR transfectant; assay: Cytotoxicity, 18 h drug exposure, V79 NR+ line (T79-A3); type: cell-based; conditions: for IC50: read-out: V-79 NR+ IC50; for V-79 ratio of IC50s: T78-1 vs T79-A3, inter-experiment average
Description: as §1

[3] = system: human colon carcinoma NR− line (WIDR), wild-type; assay: Cytotoxicity, 18 h drug exposure, WiDr NR− line; type: cell-based; conditions: read-out: WiDr NR− IC50
Description: as §1

[4] = system: human colon carcinoma NR+ line (WC14 10), NR transfectant; assay: Cytotoxicity, 18 h drug exposure, WiDr NR+ line (WC14 10); type: cell-based; conditions: for IC50: read-out: WiDr NR+ IC50; for WiDr ratio of IC50s: WIDR vs WC14 10, inter-experiment average
Description: as §1

[5] = system: human ovarian carcinoma NR− line (SKOV3), wild-type; assay: Cytotoxicity, 18 h drug exposure, SKOV3 NR− line; type: cell-based; conditions: read-out: SKOV NR− IC50
Description: as §1

[6] = system: human ovarian carcinoma NR+ line (SC3.2), NR transfectant; assay: Cytotoxicity, 18 h drug exposure, SKOV NR+ line (SC3.2); type: cell-based; conditions: for IC50: read-out: SKOV NR+ IC50; for SKOV ratio of IC50s: SKOV3 vs SC3.2, inter-experiment average
Description: as §1

[7] = system: EMT6 mouse mammary carcinoma line; assay: Cytotoxicity, 18 h drug exposure, EMT6 NR− line; type: cell-based; conditions: read-out: EMT6 NR− IC50
Description: as §1

[8] = system: EN2A, NR-transformed counterpart of EMT6; assay: Cytotoxicity, 18 h drug exposure, EMT6 NR+ line (EN2A); type: cell-based, mouse; conditions: for EMT6 ratio of IC50s: EMT6 vs EN2A, inter-experiment average; for IC50: read-out: EMT6 NR+ IC50
Description: as §1

[9] = Cricetulus griseus, T78-1, 18 h
[10] = Cricetulus griseus, Fibroblast, 18 h
[11] = Cricetulus griseus, T78-1 cells, 18 h drug exposure
[12] = Cricetulus griseus, Fibroblast, T79-A3 cells, 18 h drug exposure
[13] = Homo sapiens, WIDR cells, 18 h drug exposure
[14] = Homo sapiens, WiDr, WC14 10 cells, 18 h drug exposure
[15] = Homo sapiens, SK-OV-3, SKOV3 cells, 18 h drug exposure
[16] = Homo sapiens, SC3.2 cells, 18 h drug exposure
[17] = Mus musculus, EMT6 cells, 18 h drug exposure
[18] = Mus musculus, EMT6, EN2A cells, 18 h drug exposure
[19] = T78-1 cells, 18 h drug exposure
[20] = T79-A3 cells, 18 h drug exposure
[21] = WC14 10 cells, 18 h drug exposure
[22] = SKOV3 cells, 18 h drug exposure
[23] = SC3.2 cells, 18 h drug exposure

Compound	V-79 ratio of IC50s [2]	WiDr ratio of IC50s [4]	SKOV ratio of IC50s [6]	EMT6 ratio of IC50s [8]	IC50 [1, 11]	IC50 [2, 12]	IC50 [3, 13]	IC50 [4, 14]	IC50 [5, 15]	IC50 [6, 16]	other results
NC(=O)c1ccc(Cl)c([N+](=O)[O-])c1N1CC1	–	–	–	–	–	–	–	–	–	–	melting point: 216 °C
NC(=O)c1cc(N2CC2)c([N+](=O)[O-])cc1[N+](=O)[O-] [CB1954, 5-(aziridin-1-yl)-2,4-dinitrobenzamide, reference compound]	1200	51	357	1100	–	–	–	–	–	–	IC50 [1, 9]: 395 µM; IC50 [2, 10]: 0.3 µM; IC50 ([3]; Homo sapiens, WiDr, 18 h): 56 µM; IC50 ([4]; Homo sapiens, WiDr, 18 h): 1.2 µM; IC50 ([5]; Homo sapiens, SK-OV-3, 18 h): 182 µM; IC50 ([6]; Homo sapiens, 18 h): 0.58 µM; IC50 ([7]; Mus musculus, EMT6, 18 h): 90 µM; IC50 ([8]; Mus musculus, EMT6, 18 h): 0.08 µM
NC(=O)c1cc([N+](=O)[O-])cc([N+](=O)[O-])c1N1CC1 [Compound 14, 2-(aziridin-1-yl)-3,5-dinitrobenzamide]	864	85	280	626	1080 µM	1.2 µM	1080 µM	13 µM	1700 µM	6.1 µM	IC50 [7, 17]: 769 µM; IC50 [8, 18]: 1.3 µM
NC(=O)c1ccc([N+](=O)[O-])c(N2CC2)c1 [Compound 9, 3-(aziridin-1-yl)-4-nitrobenzamide]	1.4	1.6	1.6	–	108 µM	62 µM	102 µM	62 µM	93 µM	61 µM	–
O=C(NCCCN1CCOCC1)c1cc(N2CC2)c([N+](=O)[O-])cc1[N+](=O)[O-] [Compound 5, 5-(aziridin-1-yl)-N-[3-(4-morpholino)propyl]-2,4-dinitrobenzamide]	6210	120	730	–	–	–	–	–	–	–	IC50 [1, 19]: 255 µM; IC50 [2, 20]: 0.048 µM; IC50 ([3]; WIDR cells, 18 h drug exposure): 30 µM; IC50 [4, 21]: 0.23 µM; IC50 [5, 22]: 122 µM; IC50 [6, 23]: 0.15 µM
O=C(NCCN1CCOCC1)c1cc([N+](=O)[O-])cc([N+](=O)[O-])c1N1CC1 [Compound 18, 2-(aziridin-1-yl)-N-[2-(4-morpholino)ethyl]-3,5-dinitrobenzamide]	>68	32	>72	–	–	–	–	–	–	–	IC50 [1, 19]: > 500 µM; IC50 [2, 20]: 7.3 µM; IC50 ([3]; WIDR cells, 18 h drug exposure): 521 µM; IC50 [4, 21]: 18 µM; IC50 [5, 22]: > 500 µM; IC50 [6, 23]: 11 µM
NC(=O)c1cc([N+](=O)[O-])c(Cl)cc1N1CC1	–	–	–	–	–	–	–	–	–	–	melting point: 155 °C
O=C(NCCCCN1CCOCC1)c1cc(N2CC2)c([N+](=O)[O-])cc1[N+](=O)[O-] [Compound 6, N-[4-(4-morpholino)butyl]-5-(aziridin-1-yl)-2,4-dinitrobenzamide]	1210	93	510	–	–	–	–	–	–	–	IC50 [1, 19]: 237 µM; IC50 [2, 20]: 0.25 µM; IC50 ([3]; WIDR cells, 18 h drug exposure): 28 µM; IC50 [4, 21]: 0.31 µM; IC50 [5, 22]: 151 µM; IC50 [6, 23]: 0.3 µM
COC(=O)CCNC(=O)c1cc(N2CC2)c([N+](=O)[O-])cc1[N+](=O)[O-] [Compound 8, 5-(aziridin-1-yl)-N-[2-(methoxycarbonyl)ethyl]-2,4-dinitrobenzamide]	1580	51	270	–	–	–	–	–	–	–	IC50 [1, 9]: 581 µM; IC50 [2, 10]: 0.4 µM; IC50 ([3]; Homo sapiens, WiDr, 18 h): 124 µM; IC50 ([4]; Homo sapiens, WiDr, 18 h): 2.3 µM; IC50 ([5]; Homo sapiens, SK-OV-3, 18 h): 677 µM; IC50 ([6]; Homo sapiens, 18 h): 2.5 µM
O=C(NCC(O)CO)c1cc(N2CC2)c([N+](=O)[O-])cc1[N+](=O)[O-] (centres unmarked) [Compound 2, N-(2,3-dihydroxypropyl)-5-(aziridin-1-yl)-2,4-dinitrobenzamide]	381	49	84	86	210 µM	0.71 µM	147 µM	3.7 µM	170 µM	2.3 µM	IC50 [7, 17]: 90 µM; IC50 [8, 18]: 1.1 µM
CN(CCN1CCOCC1)C(=O)c1cc(N2CC2)c([N+](=O)[O-])cc1[N+](=O)[O-] [Compound 4, 5-(aziridin-1-yl)-N-methyl-N-[2-(4-morpholino)ethyl]-2,4-dinitrobenzamide]	235	21	46	–	–	–	–	–	–	–	IC50 [1, 19]: 364 µM; IC50 [2, 20]: 1.8 µM; IC50 ([3]; WIDR cells, 18 h drug exposure): 170 µM; IC50 [4, 21]: 8.1 µM; IC50 [5, 22]: 533 µM; IC50 [6, 23]: 13 µM
NC(=O)c1c([N+](=O)[O-])ccc(N2CC2)c1[N+](=O)[O-] [Compound 13, 3-(aziridin-1-yl)-2,6-dinitrobenzamide]	3.8	5.9	9.5	10	437 µM	135 µM	312 µM	58 µM	584 µM	66 µM	IC50 [7, 17]: 287 µM; IC50 [8, 18]: 27 µM
O=C(NCC(O)CO)c1cc([N+](=O)[O-])cc([N+](=O)[O-])c1N1CC1 (centres unmarked) [Compound 17, 2-(aziridin-1-yl)-N-(2,3-dihydroxypropyl)-3,5-dinitrobenzamide]	208	71	184	–	1440 µM	6 µM	878 µM	12 µM	1300 µM	7.3 µM	–
O=C(NCCN1CCOCC1)c1cc(N2CC2)c([N+](=O)[O-])cc1[N+](=O)[O-] [Compound 3, 5-(aziridin-1-yl)-N-[2-(4-morpholino)ethyl]-2,4-dinitrobenzamide]	4160	183	1100	4505	–	–	–	–	–	–	IC50 [1, 19]: 571 µM; IC50 [2, 20]: 0.15 µM; IC50 ([3]; WIDR cells, 18 h drug exposure): 131 µM; IC50 [4, 21]: 0.72 µM; IC50 [5, 22]: 494 µM; IC50 [6, 23]: 0.45 µM; IC50 ([7]; EMT6 cells, 18 h drug exposure): 229 µM; IC50 ([8]; EN2A cells, 18 h drug exposure): 0.061 µM
CS(=O)(=O)c1cc([N+](=O)[O-])c(C(N)=O)cc1N1CC1 [Compound 12, 5-(aziridin-1-yl)-4-(methylsulfonyl)-2-nitrobenzamide]	12	10	19	–	419 µM	40 µM	224 µM	22 µM	393 µM	22 µM	–
O=C(NCCn1ccnc1)c1cc(N2CC2)c([N+](=O)[O-])cc1[N+](=O)[O-] [Compound 7, 5-(aziridin-1-yl)-N-[2-(imidazol-1-yl)ethyl]-2,4-dinitrobenzamide]	1170	48	104	–	420 µM	0.39 µM	47 µM	1 µM	61 µM	0.58 µM	–
NC(=O)c1cc(N2CC2)ccc1[N+](=O)[O-] [Compound 11, 5-(aziridin-1-yl)-2-nitrobenzamide]	1.5	1.4	1.4	–	121 µM	81 µM	126 µM	89 µM	129 µM	102 µM	–
CS(=O)(=O)c1cc([N+](=O)[O-])c(N2CC2)cc1C(=O)NCC(O)CO (centres unmarked) [Compound 10, 5-(aziridin-1-yl)-N-(2,3-dihydroxypropyl)-2-(methylsulfonyl)-4-nitrobenzamide]	87	33	159	124	641 µM	8.8 µM	826 µM	26 µM	920 µM	6.2 µM	IC50 [7, 17]: 454 µM; IC50 [8, 18]: 3.7 µM
